This note sets out measurements from paper PMC5986738, “Thiazole Amides, A Novel Class of Algaecides against Freshwater Harmful Algae” (Scientific Reports, 2018).

The subject of assay [1] is S. obliqnus. The experiment in a line: Algicidal activity (growth inhibition, microplate, absorbance 650 nm) against S. obliqnus. It counts as cell-based. The following applies: 96-hour IC50, mean ± SD. As for the experimental part:
(§1) According to the method established by Schrader et al.[42], algicidal activity of alkaloid (1) and its amide analogues (7–32), as well as their hydrochloric salts (7S–27S), was evaluated against three typical […] algae, S. obliqnus, M. aeruginosa, and C. Pyrenoidosa at different concentrations. After three algae species were inoculated, the variation of algae density over 7 days were recorded continuously. […] The wavelength at 650 nm was determined as ideal incident wavelength for the measurement of algae density. Three […] algae S. obliqnus, M. aeruginosa, and C. pyrenoidosa were offered by Freshwater algae culture collection of the institute of Hydrobiology (FACHB-collection). Each culture for three species was maintained separately in continuous, steady-state growth microplates, which were placed in a growth chamber held at 28 ± 1 °C and illuminated continuously under fluorescent lights at a photon flux density of […]. Absorbance values of each wells were measured by a Packard model Spectra Count microplate photometer.
(§2) Alkaloid (1) and its analogues (7–32), as well as their hydrochloric salts (7S–27S), were dissolved separately in DMSO to provide stock solution concentrations. Initially, each stock solution was aseptically pipetted into the bottom of separate wells (20 μL per well) in a 96-well microplate and the final test concentrations for each sample were 0, 0.78, 1.56, 3.12, 6.25, 12.5, and 25 μg/mL. Wells of control samples contained only unialgal culture. The solution of CuSO4 and Diuron at the same concentration were chose as the reference sample. Each experiment was performed at least three times. Through measuring the area values under the individual growth curves, the inhibitory rate (%) for the individual tested concentration was calculated according to the following equation (1):1 Ii=(Ac−Ai)/[…]×100% • Ii: inhibitory rate of biomass growth by toxicant concentration i (%) • Ac: average area under the growth curve by control sample • Ai: average area under the growth curve by test concentration i
(§3) Mean values of 96-hour IC50 were determined for each group of plates, and standard deviation were calculated and reported as the mean ± SD.
(§4) The IC50 values of all compounds against three freshwater algae species were calculated using SPSS v19.0, and the algicidal activities of alkaloid (1) and its amide analogues (7–32), as well as the corresponding hydrochloric salts (7S–27S) are listed in Table 1 and 2, respectively.

For assay [2], the system named is M. aeruginosa. As to the kind of experiment: Algicidal activity (growth inhibition, microplate, absorbance 650 nm) against M. aeruginosa. The following applies: for IC50 value M. aeruginosa: 96-hour IC50, mean ± SD; for growth inhibitory ratio: 3.13 μg/mL. It counts as cell-based. As for the experimental part: as §1, §2, §3, §4
Currently, M. aeruginosa appears to be the most harmful algae existing in the freshwater bodies in the developing countries. To investigate growth inhibitory potential of this class of thiazole amides on M. aeruginosa, thiazole amide (10) and its hydrochloric acid salt (10S) were subject to further survey for the optimal inhibition time and concentration (Figs 3 and 4). […] The variation of growth inhibitory ratios of compounds (10) and (10S) against M. aeruginosa at the lowest complete inhibition concentration is illustrated in Fig. 4. As observed, for administration of thiazole amide (10), the growth inhibitory ratios after 96 and 120 hours increase gradually to 79% and 92%, respectively. Under the same experimental conditions, growth inhibitory ratios for the salt (10S) are 82% and 88%, respectively.

The test system of assay [3] is C. pyrenoidosa. The experiment in a line: Algicidal activity (growth inhibition, microplate, absorbance 650 nm) against C. pyrenoidosa. It counts as cell-based, Chlorella pyrenoidosa. The following applies: 96-hour IC50, mean ± SD. As for the experimental part:
as §1, §2, §3, §4

`C[C@H](N)c1nc(C(=O)Nc2ccccc2)cs1.Cl` [7S]: the “IC50 value S. obliqnus” value in assay [1] was 0.14 ± 0.06 µg/mL. Besides, the “IC50 value M. aeruginosa” value in assay [2] came out at 1.33 ± 0.16 µg/mL. In assay [3], the “IC50 value C. pyrenoidosa” value stood at 2.54 ± 0.28 µg/mL.

`C[C@H](N)c1nc(C(=O)Nc2ccc(F)cc2)cs1.Cl` [8S]: the “IC50 value S. obliqnus” value in assay [1] was determined as 1.14 ± 0.09 µg/mL. The “IC50 value M. aeruginosa” value in assay [2] is 3.00 ± 0.12 µg/mL. Also, the “IC50 value C. pyrenoidosa” value in assay [3] stood at 2.69 ± 0.23 µg/mL.

For `C[C@H](N)c1nc(C(=O)Nc2ccc(Cl)cc2)cs1.Cl` [9S], the “IC50 value S. obliqnus” value in assay [1] worked out at 4.00 ± 0.34 µg/mL. The “IC50 value M. aeruginosa” value in assay [2] is 1.18 ± 0.21 µg/mL. Further, the “IC50 value C. pyrenoidosa” value in assay [3] was 0.40 ± 0.10 µg/mL.

In the case of `C[C@H](N)c1nc(C(=O)Nc2ccc(Br)cc2)cs1.Cl` [10S], the growth inhibitory ratio in assay [2] (after 96 hours) is reported as 82%; in assay [2] (after 120 hours), 88%.

With `Cc1ccc(NC(=O)c2csc([C@H](C)N)n2)cc1.Cl` [11S], the “IC50 value S. obliqnus” value in assay [1] came to 6.83 ± 0.45 µg/mL. Further, the “IC50 value M. aeruginosa” value in assay [2] amounted to 4.34 ± 0.36 µg/mL. Further, the “IC50 value C. pyrenoidosa” value in assay [3] was 3.37 ± 0.28 µg/mL.

With `COc1ccc(NC(=O)c2csc([C@H](C)N)n2)cc1.Cl` [12S], the “IC50 value S. obliqnus” value in assay [1] came to 3.16 ± 0.29 µg/mL. Besides, the “IC50 value M. aeruginosa” value in assay [2] worked out at 1.40 ± 0.18 µg/mL. In assay [3], the “IC50 value C. pyrenoidosa” value turned out to be 2.88 ± 0.39 µg/mL.

On to `C[C@H](N)c1nc(C(=O)Nc2cccc(Cl)c2)cs1.Cl` [14S], for which the “IC50 value S. obliqnus” value in assay [1] was 2.01 ± 0.19 µg/mL. Also, the “IC50 value M. aeruginosa” value in assay [2] is 0.79 ± 0.08 µg/mL. The “IC50 value C. pyrenoidosa” value in assay [3] was 0.66 ± 0.06 µg/mL.

For `C[C@H](N)c1nc(C(=O)Nc2cccc(Br)c2)cs1.Cl` [15S], the “IC50 value S. obliqnus” value in assay [1] is 1.59 ± 0.16 µg/mL. Also, the “IC50 value M. aeruginosa” value in assay [2] came out at 2.96 ± 0.26 µg/mL. The “IC50 value C. pyrenoidosa” value in assay [3] was found to be 2.75 ± 0.30 µg/mL.

As for `Cc1cccc(NC(=O)c2csc([C@H](C)N)n2)c1.Cl` [16S], in assay [1], the “IC50 value S. obliqnus” value was 4.07 ± 0.39 µg/mL. Moreover, in assay [2], the “IC50 value M. aeruginosa” value is 1.95 ± 028 µg/mL. The “IC50 value C. pyrenoidosa” value in assay [3] stood at 1.82 ± 0.14 µg/mL.

For `C[C@H](N)c1nc(C(=O)Nc2cccc(C(F)(F)F)c2)cs1.Cl` [17S], in assay [1], the “IC50 value S. obliqnus” value worked out at 1.59 ± 0.23 µg/mL. Besides, the “IC50 value M. aeruginosa” value in assay [2] was found to be 3.09 ± 0.42 µg/mL. In addition, the “IC50 value C. pyrenoidosa” value in assay [3] is 2.39 ± 0.24 µg/mL.

As to `C[C@H](N)c1nc(C(=O)Nc2ccccc2F)cs1.Cl` [18S], the “IC50 value S. obliqnus” value in assay [1] worked out at 1.12 ± 0.09 µg/mL. In addition, the “IC50 value M. aeruginosa” value in assay [2] came to 0.26 ± 0.01 µg/mL. In addition, in assay [3], the “IC50 value C. pyrenoidosa” value worked out at 0.27 ± 0.09 µg/mL.

Regarding `C[C@H](N)c1nc(C(=O)Nc2ccccc2Cl)cs1.Cl` [19S], the “IC50 value S. obliqnus” value in assay [1] came to 0.14 ± 0.02 µg/mL. Also, the “IC50 value M. aeruginosa” value in assay [2] is 3.07 ± 0.34 µg/mL. Besides, in assay [3], the “IC50 value C. pyrenoidosa” value is 2.50 ± 0.16 µg/mL.

Consider `C[C@H](N)c1nc(C(=O)Nc2ccccc2Br)cs1.Cl` [20S], for which the “IC50 value S. obliqnus” value in assay [1] was found to be 0.68 ± 0.06 µg/mL. Further, the “IC50 value M. aeruginosa” value in assay [2] is 1.23 ± 0.12 µg/mL. The “IC50 value C. pyrenoidosa” value in assay [3] was found to be 0.41 ± 0.04 µg/mL.

For `Cc1ccccc1NC(=O)c1csc([C@H](C)N)n1.Cl` [21S], the “IC50 value S. obliqnus” value in assay [1] was found to be 13.63 ± 1.20 µg/mL. Moreover, the “IC50 value M. aeruginosa” value in assay [2] amounted to 4.93 ± 045 µg/mL. Moreover, in assay [3], the “IC50 value C. pyrenoidosa” value was 5.15 ± 0.56 µg/mL.

As for `COc1ccccc1NC(=O)c1csc([C@H](C)N)n1.Cl` [22S], the “IC50 value S. obliqnus” value in assay [1] turned out to be 1.74 ± 0.24 µg/mL. Besides, the “IC50 value M. aeruginosa” value in assay [2] amounted to 1.12 ± 0.16 µg/mL. The “IC50 value C. pyrenoidosa” value in assay [3] is 0.35 ± 0.02 µg/mL.

Take `C[C@H](N)c1nc(C(=O)Nc2ccc(OC(F)(F)F)cc2)cs1.Cl` [23S]: the “IC50 value S. obliqnus” value in assay [1] came to 4.68 ± 0.38 µg/mL. Besides, the “IC50 value M. aeruginosa” value in assay [2] worked out at 4.45 ± 0.58 µg/mL. Also, the “IC50 value C. pyrenoidosa” value in assay [3] was 0.66 ± 0.03 µg/mL.

As to `C[C@H](N)c1nc(C(=O)Nc2ccc(Cl)c(Cl)c2)cs1.Cl` [24S], in assay [1], the “IC50 value S. obliqnus” value was 5.59 ± 0.78 µg/mL. In addition, the “IC50 value M. aeruginosa” value in assay [2] turned out to be 5.18 ± 0.66 µg/mL. The “IC50 value C. pyrenoidosa” value in assay [3] came to 3.42 ± 0.32 µg/mL.
